Publication PMC8231654, “Evaluation of Cytotoxic and Mutagenic Effects of the Synthetic Cathinones Mexedrone, α-PVP and α-PHP” (International Journal of Molecular Sciences, 2021)
Where two headings read alike, the source gives them in different places.

Columns and labels:
[1] = cited from earlier work; for mutagenic potential: psychoactive phenethylamines; for mutagenic capacity in terms of increasing the frequency of MNi: synthetic cannabinoids, first study of 2020
[2] = system: TK6 cells; assay: In vitro micronucleus test by flow cytometry, with S9 mix; assay type: cell-based, human; details: 3 h + S9 mix, 23 h recovery, 75 and 100 µM
Description: (§1) The analysis of the MNi frequency was performed using an automated protocol published by Lenzi et al..
(§2) A total of 10,000 nuclei, derived from viable and proliferating cells, and the corresponding number of MNi were acquired and analyzed by Guava Incyte software. The discrimination between nuclei and MNi occurs on the basis of the different size and intensity of green fluorescence.
(§3) The MNi frequency (number of MNi/10,000 nuclei) recorded in treated cultures were normalized on those recorded in the concurrent negative control cultures, accounted equal to 1 and expressed as MNi frequency fold increase.
The exogenous metabolic activation system employed is a co-factor-supplemented post-mitochondrial fraction (S9 mix) prepared from the livers of rats treated with enzyme-inducing agent Aroclor 1254. The final concentration of S9 in the culture medium was 0.75%.
(§4) We used the clastogen MMC and the aneuploidogen VINB as positive controls in absence of S9 mix, while CP, a clastogen agent requiring metabolic activation, in presence of S9 mix.

[3] = system: SERT; design: method as in PMID 27524685; details: monoamine uptake, rats' brain synaptosomes; cited from earlier work
[4] = system: DAT; design: method as in PMID 27524685; details: monoamine uptake, rats' brain synaptosomes; cited from earlier work
[5] = system: SERT; design: method as in PMID 27524685; details: rats' brain synaptosomes; read-out: releasing activity on SERT EC50; cited from earlier work
[6] = system: TK6 cells; assay: Cytotoxicity analysis (Guava ViaCount, cell viability); details: 26 h, 25-100 µM
[7] = system: TK6 cells; assay: Apoptosis analysis (Guava Nexin assay); assay type: cell-based, human; details: 26 h, all selected concentrations
Description: The percentage of apoptotic cells was evaluated by the Guava Nexin Assay according to the procedure by Lenzi et al. and Cocchi et al..
The reagent contains the 7-aminoactinomycin D (7- AAD), a cells non-permeant dye that allows the discrimination between live and dead cells, and the Annexin-V-PE that allows the identification of apoptotic cells by binding to the phosphatidylserine on the cell surface.
100 μL of reagent was added to 100 μL of cell suspension (~1 × 10^5 cells) and incubated for 20 min at RT. Then, a total of 2000 events were acquired and analyzed by Guava Nexin software.
The apoptotic cell percentages recorded in the cultures treated with synthetic cathinones different concentrations were normalized on those recorded in the untreated control cultures, accounted equal to 1 and expressed as apoptotic fold increase.

[8] = system: NET; design: method as in PMID 27524685; details: monoamine uptake, rats' brain synaptosomes; cited from earlier work
[9] = system: TK6 cells; assay: In vitro micronucleus test by flow cytometry, without S9 mix; assay type: cell-based, human; details: 26 h, 75 and 100 µM
Description: as §1, §2, §3, §4

[10] = system: TK6 cells; assay: Cytostasis analysis (Relative Population Doubling); assay type: cell-based, human; details: 26 h; for Relative Population Doubling (RPD): mean ± SEM; for Cytostatic effect / RPD versus OECD threshold (55 ± 5%): all concentrations up to 100 µM
Description: In parallel, always using the Guava ViaCount Reagent, the number of cells seeded at time 0 and the one measured at the end of the treatment time were used to check the correct replication and to calculate the Population Doublings (PD) values. Subsequently, the PD obtained in the control cultures was compared to that measured in the treated cultures obtaining the Relative Population Doublings (RPD). PD and RPD were calculated with the following formulas:(1) PD=logpost−initial cell number/initial cell number÷log2 (2) RPD=PD in treated cultures/PD in control cutures x 100
Similarly, to cytotoxicity, the cytostasis was checked, in order to verify that cell proliferation respected the threshold established by OECD guideline (55 ± 5%).

[11] = system: mice; details: in mice; cited from earlier work
[12] = system: rats; details: in rats; cited from earlier work
[13] = system: serotonin transporter (SERT); design: method as in PMID 25624004, PMID 27799294; details: human embryonic kidney 293 cells; cited from earlier work
[14] = system: dopamine (DAT), norepinephrine (NET), and serotonin (SERT) transporters; design: method as in PMID 25624004, PMID 27799294; details: human embryonic kidney 293 cells; cited from earlier work
[15] = system: norepinephrine transporter (NET); design: method as in PMID 25624004, PMID 27799294; details: reuptake inhibition, human embryonic kidney 293 cells; cited from earlier work
[16] = design: method as in PMID 26505776, PMID 29963212, PMID 33379373; details: human urine of a drug abuser; cited from earlier work
[17] = system: dopamine transporter (DAT); design: method as in PMID 25624004, PMID 27799294; details: reuptake inhibition, human embryonic kidney 293 cells; cited from earlier work
[18] = design: method as in PMID 23797910, PMID 26014283, PMID 27142261; details: in vitro studies; cited from earlier work
[19] = system: C2C12 myoblasts; design: method as in PMID 30925718; details: 24 h, concentrations 10 to 20 times higher than in this paper; cited from earlier work

COc1cc(CCN)c(OC)cc1Br [2C-B]
mutagenic potential [1]: proved to be mutagen

COc1ccc(OC)c(CCN)c1 [2C-H]
mutagenic potential [1]: proved to be mutagen

COc1cc(CCN)c(OC)cc1I [2C-I]
mutagenic potential [1]: proved to be mutagen

COc1cc(CCNCc2ccccc2OC)c(OC)cc1Br [25B-NBOMe]
mutagenic potential [1]: proved to be mutagen

CCCCCn1nc(C(=O)OC23CC4CC(CC(C4)C2)C3)c2ccccc21 [APINAC]
mutagenic capacity in terms of increasing the frequency of MNi [1]: mutagenic capacity

O=C(Oc1cccc2cccnc12)c1cn(CC2CCCCC2)c2ccccc12 [BB-22]
mutagenic capacity in terms of increasing the frequency of MNi [1]: mutagenic capacity

CNC(COC)C(=O)c1ccc(C)cc1 (stereo not shown) [Mexedrone, 3-methoxy-2-(methylamino)-1-(4-methylphenyl)propan-1-one]
MNi frequency fold increase versus negative control [2]: statistically significant increase at both concentrations tested
IC50 [3]: ~5200 nM
IC50 [4]: ~6800 nM
EC50 [5]: 2500 nM
Cell viability / cytotoxic effect versus negative control and OECD threshold (55 ± 5%) [6]: do not induce any cytotoxic or cytostatic effects
Apoptosis fold increase versus negative control [7]: never reached a doubling
IC50 [8]: ~8800 nM
MNi frequency fold increase versus negative control [9]: significant increase of the MNi frequency at both the concentrations tested
Relative Population Doubling (RPD) ([10]; 25 µM): 97.0% ± 3.2
Relative Population Doubling (RPD) ([10]; 35 µM): 92.0% ± 4.2
Relative Population Doubling (RPD) ([10]; 50 µM): 88.4% ± 7.9
Relative Population Doubling (RPD) ([10]; 75 µM): 95.2% ± 3.5
Relative Population Doubling (RPD) ([10]; 100 µM): 90.1% ± 3.6
Cytostatic effect / RPD versus OECD threshold (55 ± 5%) [10]: do not induce any cytotoxic or cytostatic effects

O=C(NC12CC3CC(CC(C3)C1)C2)c1cn(CCCCCF)c2ccccc12 [STS-135]
mutagenic capacity in terms of increasing the frequency of MNi [1]: mutagenic capacity

C[C@H](N)C(=O)c1ccccc1 [cathinone]
mutagenicity [11]: mutagenicity demonstrated

CNC(C)C(=O)c1ccc(C)cc1 (stereo not shown) [mephedrone, 4-methyl-N-methyl cathinone]
mutagenicity [12]: mutagenicity demonstrated

CCCCC(C(=O)c1ccccc1)N1CCCC1 (stereo not drawn) [α-PHP, alpha-pyrrolidinohexanophenone]
IC50 [13]: > 10000 nM
MNi frequency fold increase versus negative control [2]: statistically significant increase was observed only at the highest concentration tested
neurotransmitters release [14]: do not enhance neurotransmitters release
IC50 [15]: 40 nM
number of glucuronide conjugates identified [16]: 9
number of phase I metabolites identified [16]: 19
IC50 [17]: 20 nM
Cell viability / cytotoxic effect versus negative control and OECD threshold (55 ± 5%) [6]: do not induce any cytotoxic or cytostatic effects
Apoptosis fold increase versus negative control [7]: never reached a doubling
MNi frequency fold increase versus negative control [9]: no statistically significant increase
Relative Population Doubling (RPD) ([10]; 25 µM): 88.3% ± 1.3
Relative Population Doubling (RPD) ([10]; 35 µM): 94.4% ± 1.7
Relative Population Doubling (RPD) ([10]; 50 µM): 96.8% ± 3.2
Relative Population Doubling (RPD) ([10]; 75 µM): 85.2% ± 3.5
Relative Population Doubling (RPD) ([10]; 100 µM): 85.9% ± 5.6
Cytostatic effect / RPD versus OECD threshold (55 ± 5%) [10]: do not induce any cytotoxic or cytostatic effects

CCCC(C(=O)c1ccccc1)N1CCCC1 (stereo not drawn) [α-PVP, alpha-pyrrolidinopentiophenone]
IC50 [13]: > 10000 nM
MNi frequency fold increase versus negative control [2]: significant increase in MNi frequency at both concentrations tested
neurotransmitters release [14]: do not enhance neurotransmitters release
IC50 [15]: 20 nM
number of phase I metabolites identified [18]: 6
IC50 [17]: 40 nM
Cell viability / cytotoxic effect versus negative control and OECD threshold (55 ± 5%) [6]: do not induce any cytotoxic or cytostatic effects
mitochondrial superoxide production [19]: statistically significant increase in mitochondrial superoxide production
Apoptosis fold increase versus negative control [7]: never reached a doubling
MNi frequency fold increase versus negative control [9]: no statistically significant increase
Relative Population Doubling (RPD) ([10]; 25 µM): 91.5% ± 5.9
Relative Population Doubling (RPD) ([10]; 35 µM): 88.4% ± 6.8
Relative Population Doubling (RPD) ([10]; 50 µM): 88.7% ± 7.1
Relative Population Doubling (RPD) ([10]; 75 µM): 89.9% ± 4.6
Relative Population Doubling (RPD) ([10]; 100 µM): 87.6% ± 6.3
Cytostatic effect / RPD versus OECD threshold (55 ± 5%) [10]: do not induce any cytotoxic or cytostatic effects
